Experimental data as given in US11415579B2, “Assay for measuring a rate of reaction between a target and a ligand candidate” (Imperial College Innovations Ltd., priority 2016, dated 2022).

Assays:
[1] = biological target: T1, human cyclin-dependent kinase 2 (Cdk2) (Homo sapiens, UniProt P24941); experiment: Kinetic thiol consumption assay with wild type Cdk2 (C177); format: binding; design: key to Rate enhancement, Cdk2 WT: k(Cdk2) divided by k(model thiol); Rate constant with Cdk2 (k(Cdk2)): unit not given here; conditions: for Rate constant with Cdk2 (k(Cdk2)): 500 μM ligand, 5 μM thiol, phosphate buffer pH 8; for Rate enhancement, Cdk2 WT: no additional mutations; for Rate constant with Cdk2 WT: Protein: Cdk2, cysteine position WT, in h^-1; for k(Cdk2)/k(Cdk2_mut) rate enhancement: model thiol Cdk2[C177A, F80C, K278C]; for k(Cdk2)/k(GSH) rate enhancement: model thiol glutathione; for hit classification, Example 2: significant rate enhancement against both model thiols (GSH and mutant Cdk2)
T1 construct: poly-histidine; made in house; host or cells: E. coli
Summary of the method: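 Thiol 5 μM (Cdk2 or model thiol), degassed phosphate buffer pH 8, TCEP beads 2% v/v. Plates incubated 1 h RT, ex/em 380/470 nm. First-order decay fit → rate constant; ratio Cdk2/model thiol = rate enhancement.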

Cdk2(S181C) (C177A) = biological target: T2, Cdk2(S181C) (C177A) (Homo sapiens, UniProt P24941, C177A/S181C); experiment: Kinetic thiol consumption assay with Cdk2 mutant S181C; format: binding; design: key to Rate enhancement, Cdk2 S181C: rate constant with Cdk2 ÷ rate constant with model thiol (fold); conditions: additional mutation C177A; for Rate constant with Cdk2 S181C: Protein: Cdk2, cysteine position S181C, in h^-1
T2 construct: poly-histidine; made in house; host or cells: E. coli
Summary of the method: (§1)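 5 μM thiol, degassed phosphate pH 8, 2% v/v immobilized TCEP beads; 1 h RT; fluorescence ex 380/em 470 nm; normalized vs DMSO/thiol-only; first-order exponential decay fit → rate constant; Cdk2 k / model-thiol k = rate enhancement per acrylamide.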

Cdk2(H71C) (C177A) = biological target: T3, Cdk2(H71C) (C177A) (Homo sapiens, UniProt P24941, C177A/H71C); experiment: Kinetic thiol consumption assay with Cdk2 mutant H71C; format: binding; design: key to Rate enhancement, Cdk2 H71C: rate constant with Cdk2 ÷ rate constant with model thiol (fold); conditions: additional mutation C177A; for Rate constant with Cdk2 H71C: Protein: Cdk2, cysteine position H71C, in h^-1
T3 construct: poly-histidine; made in house; host or cells: E. coli
Summary of the method: as §1

[2] = Kinetic thiol consumption assay with model thiol glutathione; format: physicochemical; design: Rate constant with glutathione (k(GSH)): unit not given here; conditions: for Rate constant with glutathione (k(GSH)): 500 μM ligand, 5 μM thiol, phosphate buffer pH 8; for Rate constant with Glutathione: Protein: Glutathione, cysteine position NA, in h-1
Summary of the method: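 GSH 5 μM, degassed phosphate buffer pH 8, TCEP beads 2% v/v; acrylamide added; RT, 1 h; fluorescence ex/em 380/470 nm; normalized to DMSO/thiol control; k from first-order exponential decay fit.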

Cdk2(R122C) (C177A) = biological target: T4, Cdk2(R122C) (C177A) (Homo sapiens, UniProt P24941, C177A/R122C); experiment: Kinetic thiol consumption assay with Cdk2 mutant R122C; format: binding; design: key to Rate enhancement, Cdk2 R122C: rate constant with Cdk2 ÷ rate constant with model thiol (fold); conditions: additional mutation C177A; for Rate constant with Cdk2 R122C: Protein: Cdk2, cysteine position R122C, in h-1
T4 construct: poly-histidine; made in house; host or cells: E. coli
Summary of the method: as §1

Cdk2(C177A, F80C) = biological target: T5, Cdk2(C177A, F80C) (Homo sapiens, UniProt P24941, C177A/F80C); experiment: Kinetic thiol consumption assay with Cdk2 mutant F80C, incl. kobs versus concentration (Kd, k2); format: binding; design: key to Rate enhancement, Cdk2 F80C: Cdk2 rate constant divided by model-thiol rate constant; conditions: additional mutation C177A; for Rate constant with Cdk2 F80C: Protein: Cdk2, cysteine position F80C, in h^-1
T5 construct: poly-histidine; made in house; host or cells: E. coli
Summary of the method: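 His-tagged Cdk2(C177A/F80C) from E. coli or model thiol, 5 μM in degassed phosphate buffer pH 8 with TCEP beads, reacted with acrylamide ligands; fluorescence (ex/em 380/470 nm) normalized to DMSO control and fitted to first-order decay for kobs. Kd and k2 obtained from hyperbolic fit of kobs versus ligand concentration.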

Cdk2(N272C) (C177A) = biological target: T6, Cdk2(N272C) (C177A) (Homo sapiens, UniProt P24941, C177A/N272C); experiment: Kinetic thiol consumption assay with Cdk2 mutant N272C; format: binding; design: key to Rate enhancement, Cdk2 N272: rate constant with Cdk2 ÷ rate constant with model thiol (fold); conditions: for Rate enhancement, Cdk2 N272: Cdk2 N272, additional mutation C177A; for Rate constant with Cdk2 N272C: Protein: Cdk2, cysteine position N272C, additional mutation C177A, in h^-1
T6 construct: poly-histidine; made in house; host or cells: E. coli
Summary of the method: as §1

Cdk2(T182C) (C177A) = biological target: T7, Cdk2(T182C) (C177A) (Homo sapiens, UniProt P24941, C177A/T182C); experiment: Kinetic thiol consumption assay with Cdk2 mutant T182C; format: binding; design: key to Rate enhancement, Cdk2 T182C: rate constant with Cdk2 ÷ rate constant with model thiol (fold); conditions: additional mutation C177A; for Rate constant with Cdk2 T182C: Protein: Cdk2, cysteine position T182C, in h^-1
T7 construct: poly-histidine; made in house; host or cells: E. coli
Summary of the method: as §1

Cdk2(S276C) (C177A) = biological target: T8, Cdk2(S276C) (C177A) (Homo sapiens, UniProt P24941, C177A/S276C); experiment: Kinetic thiol consumption assay with Cdk2 mutant S276C; format: binding; design: key to Rate enhancement, Cdk2 S276C: rate constant with Cdk2 ÷ rate constant with model thiol (fold); conditions: additional mutation C177A; for Rate constant with Cdk2 S276C: Protein: Cdk2, cysteine position S276C, in h^-1
T8 construct: poly-histidine; made in house; host or cells: E. coli
Summary of the method: as §1

Cdk2[C177A, F80C, K278C] = biological target: T9, Cdk2[C177A, F80C, K278C] (Homo sapiens, UniProt P24941, C177A/F80C/K278C); experiment: Kinetic thiol consumption assay with mutant Cdk2 as model thiol; format: binding; design: unit not given here; conditions: 500 μM ligand, 5 μM thiol, phosphate buffer pH 8
T9 construct: poly-histidine; made in house; host or cells: E. coli
Summary of the method: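 Model thiol: His-tagged human Cdk2 C177A/F80C/K278C (two engineered surface cysteines), E. coli-expressed, 5 μM in degassed phosphate buffer pH 8 with immobilized TCEP beads (2% v/v). Fluorescence (ex/em 380/470 nm) followed over time at room temperature, normalized to DMSO/thiol control. First-order decay fit gives rate constants.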

Row | Structure (SMILES) | Rate constant with Cdk2 (k(Cdk2)) [1] | Rate enhancement, Cdk2 WT [1] | Rate constant with Cdk2 WT [1] | k(Cdk2)/k(Cdk2_mut) rate enhancement [1] | k(Cdk2)/k(GSH) rate enhancement [1] | Rate enhancement, Cdk2 S181C (Cdk2(S181C) (C177A)) | Rate constant with Cdk2 S181C (Cdk2(S181C) (C177A)) | Rate enhancement, Cdk2 H71C (Cdk2(H71C) (C177A)) | Rate enhancement, Cdk2 R122C (Cdk2(R122C) (C177A)) | Rate constant with Cdk2 R122C (Cdk2(R122C) (C177A)) | Rate enhancement, Cdk2 F80C (Cdk2(C177A, F80C)) | Rate constant with Cdk2 F80C (Cdk2(C177A, F80C)) | Rate enhancement, Cdk2 N272 (Cdk2(N272C) (C177A)) | Rate constant with Cdk2 N272C (Cdk2(N272C) (C177A)) | Rate enhancement, Cdk2 T182C (Cdk2(T182C) (C177A)) | Rate constant with Cdk2 T182C (Cdk2(T182C) (C177A)) | Rate enhancement, Cdk2 S276C (Cdk2(S276C) (C177A)) | Rate constant with Cdk2 S276C (Cdk2(S276C) (C177A)) | Rate constant with glutathione (k(GSH)) [2] | Rate constant with Glutathione [2] | also measured
1 | C=CC(=O)N1CCCN(Cc2noc(C3CC3)n2)CC1 [CA-079] | 0.00553 | 1.018 | 0.00939 | 2.634 | 0.9328 | 4.96 | 0.04575 | 0.2998 | 0.4828 | 0.004453 | 0.1408 | 0.001299 | 0.4916 | 0.004534 | 0.8366 | 0.007716 | 0.6649 | 0.006132 | 0.00593 | 0.009223 | Rate constant with Cdk2 H71C (Cdk2(H71C) (C177A)): 0.002765; Rate constant with Cdk2[C177A, F80C, K278C] (k(Cdk2_mut)) (Cdk2[C177A, F80C, K278C]): 0.0021
2 | C=CC(=O)N1CCC(NC(=O)C2CCC2)C1 (stereo not shown) [CA-088] | 0.00595 | 0.3054 | 0.005947 | 3.366 | 0.4399 | 0.1904 | 0.003708 | 0 | 0.4684 | 0.009119 | 0.1205 | 0.002347 | 0.5609 | 0.01092 | 0.9096 | 0.01771 | 0.4395 | 0.008557 | 0.01352 | 0.01947 | Rate constant with Cdk2[C177A, F80C, K278C] (k(Cdk2_mut)) (Cdk2[C177A, F80C, K278C]): 0.00177
3 | C=CC(=O)N1CC(CCN2CCCC2=O)c2ccccc21 (stereo not shown) [CA-089] | 0.2034 | 4.336 | 0.2034 | 9.903 | 4.414 | 0.5754 | 0.02699 | 3.475 | 0.4622 | 0.02168 | 1.909 | 0.08953 | 4.344 | 0.2038 | 16.71 | 0.784 | 3.061 | 0.1436 | 0.04608 | 0.04691 | hit classification, Example 2 [1]: hits; Rate constant with Cdk2 H71C (Cdk2(H71C) (C177A)): 0.163; Rate constant with Cdk2[C177A, F80C, K278C] (k(Cdk2_mut)) (Cdk2[C177A, F80C, K278C]): 0.02054
4 | C=CC(=O)N1CCn2c(Cc3ccccc3)nnc2C1 [CA-092] | 0.2634 | 3.152 | 0.2634 | 21.31 | 3.224 | 0.9146 | 0.07642 | 2.689 | 2.269 | 0.1896 | 0.1058 | 0.008842 | 7.163 | 0.5985 | 6.483 | 0.5417 | 6.528 | 0.5455 | 0.0817 | 0.08356 | hit classification, Example 2 [1]: hits; Rate constant with Cdk2 H71C (Cdk2(H71C) (C177A)): 0.2247; Rate constant with Cdk2[C177A, F80C, K278C] (k(Cdk2_mut)) (Cdk2[C177A, F80C, K278C]): 0.01236

Second part, led by results:

Row | Rate constant with Cdk2 (k(Cdk2)) [1] | Rate enhancement, Cdk2 WT [1] | Rate constant with Cdk2 WT [1] | k(Cdk2)/k(Cdk2_mut) rate enhancement [1] | k(Cdk2)/k(GSH) rate enhancement [1] | Rate enhancement, Cdk2 S181C (Cdk2(S181C) (C177A)) | Rate constant with Cdk2 S181C (Cdk2(S181C) (C177A)) | Rate enhancement, Cdk2 H71C (Cdk2(H71C) (C177A)) | Rate enhancement, Cdk2 R122C (Cdk2(R122C) (C177A)) | Rate constant with Cdk2 R122C (Cdk2(R122C) (C177A)) | Rate enhancement, Cdk2 F80C (Cdk2(C177A, F80C)) | Rate constant with Cdk2 F80C (Cdk2(C177A, F80C)) | Rate enhancement, Cdk2 N272 (Cdk2(N272C) (C177A)) | Rate constant with Cdk2 N272C (Cdk2(N272C) (C177A)) | Rate enhancement, Cdk2 T182C (Cdk2(T182C) (C177A)) | Rate constant with Cdk2 T182C (Cdk2(T182C) (C177A)) | Rate enhancement, Cdk2 S276C (Cdk2(S276C) (C177A)) | Rate constant with Cdk2 S276C (Cdk2(S276C) (C177A)) | Structure (SMILES) | Rate constant with glutathione (k(GSH)) [2] | Rate constant with Glutathione [2] | also measured
5 | 0.00872 | 0.5186 | 0.008718 | 1.989 | 0.8701 | 0.4258 | 0.007158 | 0.8209 | 0.2694 | 0.004528 | 1.811 | 0.03044 | 0.06817 | 0.001146 | 3.848 | 0.06469 | 1.079 | 0.01813 | C=CC(=O)N1CCCC2(CCCc3ccccc32)C1 (stereo not shown) [CA-084] | 0.01002 | 0.01681 | Rate constant with Cdk2 H71C (Cdk2(H71C) (C177A)): 0.0138; Rate constant with Cdk2[C177A, F80C, K278C] (k(Cdk2_mut)) (Cdk2[C177A, F80C, K278C]): 0.00438
6 | 0.00196 | 0.2573 | 0.003412 | 0.3873 | 0.2651 | 0.776 | 0.01029 | 0.5753 | 0.311 | 0.004124 | 1.271 | 0.01686 | 0.4207 | 0.005578 | 4.072 | 0.05399 | 1.327 | 0.0176 | C=CC(=O)N1CCC2(CCCCCC2)C1 [CA-093] | 0.0074 | 0.01326 | Rate constant with Cdk2 H71C (Cdk2(H71C) (C177A)): 0.007628; Rate constant with Cdk2[C177A, F80C, K278C] (k(Cdk2_mut)) (Cdk2[C177A, F80C, K278C]): 0.00507
